Read-outs that look alike come from different tables or passages of the source.
Legend:
human FPR2 receptors = molecular target: T1, human FPR2 receptors (Homo sapiens, UniProt P25090); test: FPR2 cAMP assay in CHO cells overexpressing human FPR2 (HTRF); type: cell-based
T1 sequence (P25090 1-351): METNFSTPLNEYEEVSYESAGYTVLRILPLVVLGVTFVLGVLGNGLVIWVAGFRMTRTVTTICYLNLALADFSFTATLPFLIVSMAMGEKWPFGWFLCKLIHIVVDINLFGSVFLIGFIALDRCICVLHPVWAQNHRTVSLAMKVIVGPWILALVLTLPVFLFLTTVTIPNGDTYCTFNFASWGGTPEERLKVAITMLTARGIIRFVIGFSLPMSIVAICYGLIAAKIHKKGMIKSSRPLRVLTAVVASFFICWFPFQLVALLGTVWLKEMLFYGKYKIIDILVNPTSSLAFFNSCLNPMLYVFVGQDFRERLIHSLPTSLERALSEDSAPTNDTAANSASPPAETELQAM
Source text: (§1) N-formyl peptide receptors (FPRs) are a family of chemo attractant receptors that facilitate leukocyte response during inflammation. FPRs belong to the seven-transmembrane G protein-coupled receptor superfamily and are linked to inhibitory G-proteins (Gi). Three family members (FPR1, FPR2 and FPR3) have been identified in humans and are predominantly found in myeloid cells with varied distribution and have also been reported in multiple organs and tissues. After agonist binding, the FPRs activate a multitude of physiological pathways, such as intra cellular signaling transduction, Ca^2+ mobilization and transcription. The family interacts with a diverse set of ligands that includes proteins, polypeptides and fatty acid metabolites which activate both pro-inflammatory and pro-resolution downstream responses. FPR2 and FPR1 Cyclic Adenosine Monophosphate (cAMP) Assays were used to measure the in vitro activity of the compounds disclosed in this application.
FPR2 and FPR1 Cyclic Adenosine Monophosphate (cAMP) Assays. A mixture of forskolin (5 μM final for FPR2 or 10 μM final for FPR1) and IBMX (200 μM final) were added to 384-well Proxiplates (Perkin-Elmer) pre-dotted with test compounds in DMSO (1% final) at final concentrations in the range of 0.020 nM to 100 μM. Chinese Hamster Ovary cells (CHO) overexpressing human FPR1 or human FPR2 receptors were cultured in F-12 (Ham's) medium supplemented with 10% qualified FBS, 250 μg/ml zeocin and 300 μg/ml hygromycin (Life Technologies). Reactions were initiated by adding 2,000 human FPR2 cells per well or 4,000 human FPR1 cells per well in Dulbecco's PBS (with calcium and magnesium) (Life Technologies) supplemented with 0.1% BSA (Perkin-Elmer). The reaction mixtures were incubated for 30 min at room temperature. The level of intracellular cAMP was determined using the HTRF HiRange cAMP assay reagent kit (Cisbio) according to manufacturer's instruction. Solutions of cryptate conjugated anti-cAMP and d2 flurorophore-labelled cAMP were made in a supplied lysis buffer separately. Upon completion of the reaction, the cells were lysed with equal volume of the d2-cAMP solution and anti-cAMP solution. After a 1-h room temperature incubation, time-resolved fluorescence intensity was measured using the Envision (Perkin-Elmer) at 400 nm excitation and dual emission at 590 nm and 665 nm. A calibration curve was constructed with an external cAMP standard at concentrations ranging from 1 μM to 0.1 pM by plotting the fluorescent intensity ratio from 665 nm emission to the intensity from the 590 nm emission against cAMP concentrations. The potency and activity of a compound to inhibit cAMP production was then determined by fitting to a 4-parametric logistic equation from a plot of cAMP level versus compound concentrations.

human FPR1 receptors = molecular target: T2, human FPR1 receptors (Homo sapiens, UniProt P21462); test: FPR1 cAMP assay in CHO cells overexpressing human FPR1 (HTRF); type: cell-based; conditions: forskolin 10 μM, inhibition of cAMP production, read-out: hFPR1 cAMP EC50
T2 sequence (P21462 1-350): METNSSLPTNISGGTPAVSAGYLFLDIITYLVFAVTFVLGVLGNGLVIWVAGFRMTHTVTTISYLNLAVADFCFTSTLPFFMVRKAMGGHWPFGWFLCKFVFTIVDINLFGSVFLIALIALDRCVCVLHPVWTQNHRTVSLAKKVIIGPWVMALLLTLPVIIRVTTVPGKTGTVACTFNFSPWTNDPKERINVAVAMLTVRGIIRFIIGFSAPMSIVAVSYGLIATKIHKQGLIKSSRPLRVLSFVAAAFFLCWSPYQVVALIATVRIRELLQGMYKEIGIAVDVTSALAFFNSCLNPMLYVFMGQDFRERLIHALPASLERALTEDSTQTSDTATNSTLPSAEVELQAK
Source text: as §1
FPR2 and FPR1 Cyclic Adenosine Monophosphate (cAMP) Assays. A mixture of forskolin (5 μM final for FPR2 or 10 μM final for FPR1) and IBMX (200 μM final) were added to 384-well Proxiplates (Perkin-Elmer) pre-dotted with test compounds in DMSO (1% final) at final concentrations in the range of 0.020 nM to 100 μM. Chinese Hamster Ovary cells (CHO) overexpressing human FPR1 or human FPR2 receptors were cultured in F-12 (Ham's) medium supplemented with 10% qualified FBS, 250 μg/ml zeocin and 300 μg/ml hygromycin (Life Technologies). […] The level of intracellular cAMP was determined using the HTRF HiRange cAMP assay reagent kit (Cisbio) according to manufacturer's instruction. […] After a 1-h room temperature incubation, time-resolved fluorescence intensity was measured using the Envision (Perkin-Elmer) at 400 nm excitation and dual emission at 590 nm and 665 nm. […] The potency and activity of a compound to inhibit cAMP production was then determined by fitting to a 4-parametric logistic equation from a plot of cAMP level versus compound concentrations.

[1] = CHO cells overexpressing human FPR2, forskolin 5 μM, inhibition of cAMP production, read-out: hFPR2 cAMP2 EC50
[2] = hFPR2 assay, potency bins, read-out: hFPR2 agonist activity EC50

SMILES | EC50 (human FPR2 receptors; [1]) [nM] | EC50 (human FPR1 receptors) [nM] | EC50 (human FPR2 receptors; [2]) [nM]
COc1cc(F)c([C@@H]2CNC(=O)[C@H]2Nc2cc(-c3ccc(C(F)F)cc3)on2)c(F)c1 [Example 22, (3S,4R)-4-(2,6-difluoro-4-methoxyphenyl)-3-({5-[4-(difluoromethyl)phenyl]-1,2-oxazol-3-yl}amino)pyrrolidin-2-one] | 890 | 2900 | 
COc1cc(F)c([C@@H]2CNC(=O)[C@H]2Nc2nnc(-c3ccc(Cl)cc3F)o2)c(F)c1 [Example 15, (3S,4R)-3-{[5-(4-chloro-2-fluorophenyl)-1,3,4-oxadiazol-2-yl]amino}-4-(2,6-difluoro-4-methoxyphenyl)pyrrolidin-2-one] |  |  | 150 to 1000
COc1cc(F)c([C@@H]2CNC(=O)[C@H]2Nc2nnc(-c3ccc(SC(F)(F)F)cc3)o2)c(F)c1 [Example 18, (3S,4R)-4-(2,6-difluoro-4-methoxyphenyl)-3-[(5-{4-[(trifluoromethyl)sulfanyl]phenyl}-1,3,4-oxadiazol-2-yl)amino]pyrrolidin-2-one] | 6.7 | 160 | 
COc1cc(F)c([C@@H]2CNC(=O)[C@H]2Nc2nnc(-c3ccc(C(F)(F)F)nc3)o2)c(F)c1 [Example 10, (3S,4R)-4-(2,6-difluoro-4-methoxyphenyl)-3-({5-[6-(trifluoromethyl)pyridin-3-yl]-1,3,4-oxadiazol-2-yl}amino)pyrrolidin-2-one] |  |  | ≤ 40

Second part, the compound after the results:

EC50 (human FPR2 receptors; [1]) [nM] | EC50 (human FPR1 receptors) [nM] | EC50 (human FPR2 receptors; [2]) [nM] | SMILES
71 | 870 |  | COc1cc(F)c([C@@H]2CNC(=O)[C@H]2Nc2nnc(-c3ccc(Oc4ccc(C(F)(F)F)nc4)cc3)o2)c(F)c1 [Example 58, (3S,4R)-4-(2,6-difluoro-4-methoxyphenyl)-3-{[5-(4-{[6-(trifluoromethyl)pyridin-3-yl]oxy}phenyl)-1,3,4-oxadiazol-2-yl]amino}pyrrolidin-2-one]
 |  | 40 to 150 | COc1cc(F)c([C@@H]2CNC(=O)[C@H]2Nc2nnc(-c3ccc(Oc4ccc(F)cn4)cc3)o2)c(F)c1 [Example 65, (3S,4R)-4-(2,6-difluoro-4-methoxyphenyl)-3-[(5-{4-[(5-fluoropyridin-2-yl)oxy]phenyl}-1,3,4-oxadiazol-2-yl)amino]pyrrolidin-2-one]
 |  | 40 to 150 | COc1cc(F)c([C@@H]2CNC(=O)[C@H]2Nc2nnc(-c3ccc(SC(F)(F)F)cc3)s2)c(F)c1 [Example 29, (3S,4R)-4-(2,6-difluoro-4-methoxyphenyl)-3-[(5-{4-[(trifluoromethyl)sulfanyl]phenyl}-1,3,4-thiadiazol-2-yl)amino]pyrrolidin-2-one]
 |  | 150 to 1000 | COc1cc(F)c([C@@H]2CNC(=O)[C@H]2Nc2nnc(-c3ccc(C(F)(F)F)nc3)s2)c(F)c1 [Example 33, (3S,4R)-4-(2,6-difluoro-4-methoxyphenyl)-3-({5-[6-(trifluoromethyl)pyridin-3-yl]-1,3,4-thiadiazol-2-yl}amino)pyrrolidin-2-one]
 |  | ≤ 40 | COc1cc(F)c([C@@H]2CNC(=O)[C@H]2Nc2nnc(-c3ccc(Oc4ccccc4)cc3)o2)c(F)c1 [Example 35, (3S,4R)-4-(2,6-difluoro-4-methoxyphenyl)-3-{[5-(4-phenoxyphenyl)-1,3,4-oxadiazol-2-yl]amino}pyrrolidin-2-one]
 |  | 40 to 150 | COc1cc(F)c([C@@H]2CNC(=O)[C@H]2Nc2nnc(-c3ccc(Oc4cnccn4)cc3)o2)c(F)c1 [Example 49, (3S,4R)-4-(2,6-difluoro-4-methoxyphenyl)-3-({5-[4-(pyrazin-2-yloxy)phenyl]-1,3,4-oxadiazol-2-yl}amino)pyrrolidin-2-one]

From patent US12281108B2, “Pyrrolidinone derivatives as formyl peptide 2 receptor agonists” (BRISTOL-MYERS SQUIBB COMPANY, priority 2018, dated 2025)
